Data set [1] concerns the target T1, Human Leukocyte Elastase (HLE) (Homo sapiens, UniProt P08246).
T1 construct: purchased Athens Research and Technology 16-15-051200
T1 sequence (P08246 30-247 limits assumed): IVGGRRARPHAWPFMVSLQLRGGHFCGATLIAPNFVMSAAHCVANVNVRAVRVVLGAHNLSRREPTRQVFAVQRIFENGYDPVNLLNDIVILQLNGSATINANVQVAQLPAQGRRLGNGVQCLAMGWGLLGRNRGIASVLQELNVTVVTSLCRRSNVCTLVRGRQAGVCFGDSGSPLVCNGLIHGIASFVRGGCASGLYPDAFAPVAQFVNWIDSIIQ
Briefly: HLE protease inhibition assay. It counts as biochemical. The note with it: for Relative Potency against HLE: [IC50 of JO146]/[IC50 test compound]. As to the method:
Elastase was purchased from Athens Research and Technology (Cat No. 16-15-051200). Elastase (100 µg) was dissolved in Tris buffer (100 mM Tris, 20 mM CaCl2, pH 8.1, 3.14 mL), giving a concentration of 1.117 µM, and 25 µL was added to each well containing the respective inhibitor. The plate was incubated at 37 °C for 15 min.
N-Suc-AAA-pNA (Sigma Aldrich, Bayswater, Australia, S4760, 100 µL, 1 mg/mL, […]) was added to each well, and the absorbance was monitored every six minutes at 405 nm. The rate of change of absorbance was used as a comparison to controls to determine the % inhibition of protein in Microsoft Excel^TM (v2402), and these values were exported to GraphPad Prism (v8.0.1) for IC50 calculation.

Data set [2] addresses T2, CtHtrA (Chlamydia trachomatis serovar D, UniProt P18584).
T2 construct: made in house; host or cells: E. coli BL21(DE3), pET22b
Briefly: CtHtrA protease inhibition assay. It counts as biochemical. The note with it: for Relative Selectivity: (relative CtHtrA potency)/(relative HLE potency); for IC50: IC50 against CtHtrA; for IC50 / Relative Potency against CtHtrA: control JO146; for Relative Potency against CtHtrA: [IC50 of control]/[IC50 test compound]. As to the method: The inhibitory activity of compounds 2a–g against CtHtrA was evaluated. […] As these compounds are reportedly covalent inhibitors of serine proteases, a true IC50 is unable to be calculated. Instead, the residual activity of the protease is monitored over time in response to a range of compound concentrations, and an IC50 value is interpolated from a dose–response curve (see Figures S2–S4 and Tables S1 and S2). This IC50 value is then compared to a positive control (JO146 was used for 2a–g, and 2g was used for 6a–h), giving the ‘relative potency’. This is the established method for assessing CtHtrA inhibitory potency. […] This effect may be due to depth restrictions within the S1 subpocket, as kinetic studies on the rates of protease inhibition in HLE were reduced by larger C-3 alkoxy substituents. Chain branching (iso-propyl and sec-butyl substituents) increased the activity, resulting in a 1.4-fold increase for 2e over 2b and a 2.8-fold improvement for 2g over 2c.
CtHtrA was expressed using an procedure adapted from the literature. Recombinant E. coli BL21(DE3) pET22b was grown in LB media containing 100 ug/mL ampicillin to an OD600 of 0.5-0.6 in 5 × 400 mL batches at 37 °C. Isopropyl β-D-1-thioglactopyranoside (1 M, 400 µL, 1 mM final concentration) was added to each flask and incubated at 30 °C with shaking at 150 rpm for an additional 2.5 h. The culture was centrifuged at 4000× g for 15 min at 4 °C, and the cell pellet was harvested and resuspended in lysis buffer (50 mM phosphate, 10 mM imidazole, 500 mM NaCl, 0.1% Triton X-100, 10% glycerol). Lysozyme was added to the suspended cells and was sonicated in 15 cycles of 15 s, with one minute between cycles while maintaining 4 °C, and then centrifuged at 8000× g for 20 min to remove any debris, retaining the supernatant for protein purification.
TALON® metal affinity resin (Takara cat no. 635652, 5 mL) was added to each lysate tube and washed sequentially with lysis buffer (2 × 45 mL) and stringency buffer (4 × 45 mL) and then eluted with elution buffer (2 × 5 mL), allowing incubations at 4 °C for 20 min per wash, and centrifuging at 2500× g and 4 °C between washes to pellet the resin. The eluates were dialyzed in Tris buffer (pH 7.0, 50 mM, 4 L) with magnesium chloride (20 mM) at 4 °C five times over 24 h, with a minimum of three hours per dialysis change. Protein expression and isolation were confirmed with SDS-PAGE Coomassie stained gel, which was examined for the band at the correct size, and a BCA assay to confirm purified protein concentration prior to use.
CtHtrA was added to 25 wells in a black 96-well plate (40–80 µL, 10 µL increments), to which Tris-HCl buffer (50 mM, pH 7.0 with 20 mM MgCl2) was added to bring the total volume to 90 µL for 10 wells and 85 µL for the remaining 15. JO146 (10 µM, 5 µL) was added to 5 wells and JO146 (1 µM, 5 µL) was added to another 5 wells, with DMSO (5 µL) being added to the remaining 5 as a control. The plate was incubated at 37 °C for 10 min before substrate (MCA-ENLHLPLPIIFK-DNP, 10 µL, 1 mg/mL, 50% isopropanol in buffer) was added and analyzed in a TECAN Infinite Pro M200 plate reader with an excitation wavelength of 340 nm and fluorescence measured at 405 nm with four reads per well at 60 s intervals. A minimum volume of CtHtrA granting a fluorescence change of 300 min^−1 was used for subsequent assay.
The determined appropriate volume of CtHtrA in buffer was added to a 96-well non-transparent black plate and diluted to 85 µL with buffer solution. Drug or control (5 µL) at a maximum of 20% DMSO/80% buffer was added to the appropriate well with DMSO controls, and the plate was incubated for 10 min to allow activation by the protein. MCA-ENLHLPLPIIFK-DNP (Mimotopes, Australia, 1 mg/mL, 10 µL) was added and immediately monitored on a TECAN M200 Infinite plate reader at 37 °C every 60 s for 30 min, using the same wavelengths as for the activity evaluation. […]

Data set [3] is described as follows: MTS cell viability assay, HEp-2 cells. It counts as cell-based, human. The note with it: human, HEp-2 cells, 125 µM, read-out: HEp-2 cell viability, % of DMSO-treated control cells. How it is done:
(§1) The cytotoxic effects of the 4-chloroisocoumarin compounds 2a–g and 6a–h (24 h) were tested against HEp-2 and McCoy B cells using the MTS cell viability assay. HEp-2 and McCoy B cells were selected, as these are routinely used for the cultivation of chlamydial species, and low cytotoxicity against host cells is required to evaluate the anti-chlamydial properties of a test compound [27].
(§2) HEp-2 (human epithelial type 2, CCL-23, ATCC®, Virginia, USA) or McCoy B (mouse fibroblast, CRL-1696, ATCC®) cells were grown to 80–100% confluence, and cell density was determined with a haemocytometer. Cells were then diluted to 1 × 10^5 cells/mL, and 100 µL was added to each well in a 96-well plate, with 3 wells left as controls. Cells were grown for 24 h, and the media was removed and then replaced with fresh media containing 0.1% DMSO and the drug for testing in triplicate. Drugs and cells were incubated for 24 h, and then 20 µL of MTS and PMS solution was added and then incubated for a further four hours. Absorbance was measured at 490 nm on a TECAN M200 Infinite plate reader and data were processed using Microsoft Excel^TM with the following equation to determine cell viability relative to DMSO controls. Cellviability%=AbsorbanceDrug−AbsorbanceDye/AbsorbanceDMSO−AbsorbanceDye
Background: Tetrazolium dyes change colour on reduction, which living cells bring about.

Data set [4] deals with HEp-2 cells. The data set can be described thus: MTS cell viability assay, HEp-2 cells. It counts as cell-based, human. The note with it: 62.5 and 31.25 µM, 24 h. As to the method: as §1, §2
Data set [5] addresses T2, CtHtrA. Also on record: method as in PMID 23796320. The note with it: read-out: IC50 against CtHtrA; reversible covalent complex with CtHtrA; cited from earlier work.

Where two headings read alike, the source gives them in different places.

T2 sequence (P18584 17-497): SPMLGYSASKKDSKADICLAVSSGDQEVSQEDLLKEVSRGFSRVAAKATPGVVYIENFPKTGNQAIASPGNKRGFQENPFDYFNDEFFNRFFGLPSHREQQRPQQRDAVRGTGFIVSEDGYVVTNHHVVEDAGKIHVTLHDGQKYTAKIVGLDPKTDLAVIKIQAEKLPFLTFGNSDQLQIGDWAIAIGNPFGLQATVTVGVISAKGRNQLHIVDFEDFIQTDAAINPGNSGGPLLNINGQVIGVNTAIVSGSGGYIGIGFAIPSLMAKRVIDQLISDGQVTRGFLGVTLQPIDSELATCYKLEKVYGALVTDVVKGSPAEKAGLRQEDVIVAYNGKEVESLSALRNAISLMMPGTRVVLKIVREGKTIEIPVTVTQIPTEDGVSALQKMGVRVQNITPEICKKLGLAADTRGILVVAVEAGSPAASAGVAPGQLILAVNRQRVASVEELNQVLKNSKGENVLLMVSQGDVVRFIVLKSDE

Take `COc1oc(=O)c2ccccc2c1Cl` [Compound 2a, 3-Methoxy-4-chloroisocoumarin]: the IC50 in data set [1] (Table S1, variable slope four parameter fit, read-out: IC50 against HLE) was 39.5 µM. The “Relative Potency against HLE” value in data set [1] worked out at 0.0207. Besides, in data set [2], the “Relative Selectivity” value is given as 113.0 and the “Relative Potency against CtHtrA” value came out at 2.33. The IC50 in data set [2] (Table S2, Batch 1) worked out at 30.6 µM. Moreover, in data set [3], the viability at 24 h, 125 µM was found to be 50%. The “effect on HEp-2 cell viability” value in data set [4] is given as “did not produce significant effects”.
In the case of `CC(C)[C@H](NC(=O)OC(C)(C)C)C(=O)N1CCCC1C(=O)N[C@@H](C(C)C)P(=O)(Oc1ccccc1)Oc1ccccc1` (some centres unmarked) [JO146, reference compound], the IC50 in data set [1] is 0.817 µM; in data set [5], 12 µM; in data set [2] (Table S2, Batch 1), 71.5 µM; in data set [2] (Table S2, Batch 2), 60 µM. Besides, the “Relative Potency against HLE” value in data set [1] is 1.00. In addition, the “Relative Selectivity” value in data set [2] was 1.00. Besides, in data set [2], the “Relative Potency against CtHtrA” value came to 1.00.

The term IC50 denotes the concentration needed to halve the response being measured. Broadly, the viability is a per cent measure of how many cells are alive, often set against a control.

Values taken from PMC11013143, “4-Chloroisocoumarins as Chlamydial Protease Inhibitors and Anti-Chlamydial Agents” (Molecules, 2024).
